Data on eight molecules can be found in PMC4612778, “Limonoids from Melia azedarach Fruits as Inhibitors of Flaviviruses and Mycobacterium tubercolosis” (PLoS ONE, 2015).

Values after ≈ are worked out from the molar mass of the structure shown. “Also recorded” adds a separate entry of the source. Like-named read-outs stand apart in the source and are kept apart here.

In data set [1] the test system is Vero-76 cells.
Data set [2] deals with MT-4 cells.
Data set [3] has as its system human lung adenocarcinoma epithelial cell line A549. Conditions: previous studies; cited from earlier work.
Data set [4] has as its system HIV-1 IIIB. The data set can be described thus: microbe, parasite or virus in culture. In kind it is cell-based, Human Immunodeficiency Virus type-1.
The test system of data set [5] is MDBK cells.
Data set [6] deals with M. tuberculosis. As to conditions: against M. tuberculosis; cited from earlier work.
In data set [7] the test system is BVDV. The data set can be described thus: microbe, parasite or virus in culture. In kind it is cell-based, bovine viral diarrhoea virus. Conditions: read-out: EC50 BVDV.
The test system of data set [8] is YFV. In words: microbe, parasite or virus in culture. The class given is cell-based, yellow fever virus.
Data set [9] concerns BHK-21 cells.
The test system of data set [10] is Reo-1. The data set can be described thus: microbe, parasite or virus in culture. The class given is cell-based, reovirus type-1.
For data set [11], the system named is HSV-1. The data set can be described thus: microbe, parasite or virus in culture. In kind it is cell-based, human herpes 1.
In data set [12] the test system is WNV. In kind it is cell-based, west nile virus. As to conditions: for Cell viability, addition at 1, 2, 4 or 8 hours post-infection: 15 μM for 4, 20 μM for 5.
Data set [13] deals with WNV. In words: microbe, parasite or virus in culture. The class given is cell-based, west nile virus.
The subject of data set [14] is WNV. In words: microbe, parasite or virus in culture. The class given is cell-based, west nile virus. The source holds these as a separate data set.
Data set [15] concerns DENV-2. The data set can be described thus: microbe, parasite or virus in culture. In kind it is cell-based, dengue virus.
Data set [16] in a line: in vitro. Conditions: cattle (Bos taurus).
Data set [17] can be described thus: in vitro. As to conditions: hamster (Mesocricetus auratus).
Data set [18] can be described thus: in vitro. As to conditions: African green monkey (Cercopithecus aethiops).
Data set [19] has as its system M. tuberculosis H37Ra ATCC 25177. In words: microbe, parasite or virus in culture. The class given is cell-based, Mycobacterium tuberculosis.
Data set [20] is described as follows: in vitro. Conditions: human.
For data set [21], the system named is West Nile virus, Dengue virus and Yellow Fever virus. The class given is cell-based, Flaviviridae. As to conditions: read-out: EC50 range against West Nile virus, Dengue virus and Yellow Fever virus.
Data set [22] deals with WNV. The data set can be described thus: Yield reduction assay. In kind it is cell-based, west nile virus. Conditions: BHK-21, m.o.i. 0.1, 72 hrs, 15μM for 4, 20 μM for 5.
Data set [23] deals with Vero cells.
For data set [24], the system named is WNV. In words: Adsorption assay. Conditions: BHK cells, m.o.i. 1, 0-60 min at 4°C; 15μM for 4, 20μM for 5. In kind it is cell-based, west nile virus.
Data set [25] relates to WNV. In words: Virucidal activity assay. The class given is cell-based, west nile virus. Conditions: 45 min at 37°C, 6 and 20μM for 4, 20 and 50μM for 5.
Setting [26] is: Bovine viral diarrhea virus isolates and strains, MDBK, in Bos taurus.
[27] abbreviates: Yellow fever virus, BHK-21, read-out: EC50 YFV.
Where [28] appears, read: Reovirus sp., BHK-21, read-out: EC50 Reo-1.
Setting [29] is: Human alphaherpesvirus 1, Vero 76, read-out: EC50 HSV-1.
Setting [30] is: Mycobacterium tuberculosis, 672 h.
[31] abbreviates: Human immunodeficiency virus 1, IIIB, MT4, read-out: EC50 HIV-1IIIB.

One may read the EC50 as the concentration that produces a half-maximal response. As to 21-β-acetoxy-melianone [Compound 3], the CC50 in [1] was 36 µM; in data set [2], 23 µM; in [5] it was 22 µM; in [9] it was 10 µM. In addition, in [3], the “Cytotoxicity towards A549” value was “exhibit cytotoxicity”. The EC50 in data set [4] (read-out: EC50 HIV-1IIIB) is over 23 µM; in [7], over 22 µM; in [8] (read-out: EC50 YFV) it was over 10 µM; in data set [10] (read-out: EC50 Reo-1), over 10 µM; in data set [11] (read-out: EC50 HSV-1) it was over 36 µM. Also, the MIC in [6] was 16 µg/mL.

With `C[C@@]1(O)[C@H](O)[C@@H](CO)O[C@H]1n1cnc2c(=O)[nH]c(N)nc21` [2’-C-methyl-guanosine, reference compound], the “Cell viability, addition during the infection” value in [12] is given as “increases the cell viability”. Also, the EC50 is 1 µM in [13] (West Nile virus, BHK-21, read-out: EC50 WNV); 1 µM in data set [14] (West Nile virus, BHK-21, 2 h, read-out: EC50 WNV 2hrs p.i.); 1 µM in [14] (West Nile virus, BHK-21, read-out: EC50 WNV d. i.); 1.4 µM in [15] (Dengue virus, DENV2, BHK-21, read-out: EC50 DENV-2); 2 µM in data set [7] (setting [26]); 1.4 µM in data set [8] (setting [27]). Besides, the 50% effective concentration (EC50) in [10] (setting [28]) was determined as 1 µM. Moreover, the CC50 in [16] was over 100 µM; in data set [17], 80 µM. In data set [9], the “Cytopathic effects on BHK-21 monolayers” value was “did not show significant cytopathic effects”.

Molecule `Nc1nc2c(ncn2COCCO)c(=O)[nH]1` [Acycloguanosine, reference compound] gave a CC50 in data set [18] of over 100 µM. In addition, the half-maximal effective concentration (EC50) in data set [11] (setting [29]) amounted to 3 µM.

For `COC(=O)[C@H](CCC=C(C)C)[C@@H]1[C@@H](O)C[C@]2(C)C3=CC[C@H]4C(C)(C)C(=O)CC[C@]4(C)[C@H]3CC[C@@]12C` [Compound 2, methyl kulonate], the MIC in data set [19] (setting [30]) came out at 70 µM (≈ 33.9 µg/mL). In data set [3], the “Cytotoxicity towards A549” value is “exhibit cytotoxicity”. Moreover, the EC50 was over 35 µM in data set [4] (setting [31]); over 85 µM in [7] (setting [26]); over 100 µM in data set [8] (setting [27]); over 100 µM in [10] (setting [28]); over 100 µM in data set [11] (setting [29]). In addition, the CC50 in data set [16] is 85 µM; in data set [17], over 100 µM; in data set [18] it was 100 µM; in data set [20] it was 35 µM.

For `C/C=C(\C)C(=O)O[C@@H]1CC[C@]2(C)[C@H]3CC[C@@]4(C)[C@@H]([C@@H]5C[C@H]([C@@H]6OC6(C)C)O[C@H]5O)CC[C@]4(C)C3=CC[C@H]2C1(C)C` [Compound 4, 3-α-tigloyl-melianol], the CC50 in data set [1] was determined as 100 µM; in [2], 27 µM; in data set [5], 37 µM; in data set [9], 20 µM. The same molecule yielded an MIC in [19] of 29 µM (≈ 16.1 µg/mL). In addition, the “Cell viability, addition during the infection” value in data set [12] is listed as “increases the cell viability”. Moreover, the “Cell viability, pretreatment” value in data set [12] is “does not increase the cells viability”. Besides, the “Cell viability, addition at 1, 2, 4 or 8 hours post-infection” value in [12] was “not more able to protect BHK-21 cells; also recorded: not more able to significantly increase the cell viability”. For the same molecule, the “Cytotoxicity towards A549” value in data set [3] is given as “exhibit cytotoxicity”. Moreover, the EC50 in data set [4] (read-out: EC50 HIV-1IIIB) was over 27 µM; in data set [13] (read-out: EC50 WNV), 3 µM; in [14] (read-out: EC50 WNV 2hrs p.i.), over 20 µM; in [14] (read-out: EC50 WNV d. i.) it was 3.5 µM; in data set [15] (read-out: EC50 DENV-2), 3 µM; in data set [21], 3 to 11 µM. Besides, the 50% effective concentration (EC50) was over 37 µM in [7], 7 µM in [8] (read-out: EC50 YFV), over 20 µM in data set [10] (read-out: EC50 Reo-1) and over 100 µM in data set [11] (read-out: EC50 HSV-1). In addition, the “Reduction of WNV titre (yield reduction)” value in data set [22] is given as “a reduction of virus titre was observed”. Moreover, in [23], the “Cytotoxicity against Vero cells” value was over 500 µM. In addition, in data set [9], the “Cytopathic effects on BHK-21 monolayers” value is on record as “did not show significant cytopathic effects”. In data set [24], the “WNV adsorption (virus titre)” value was “doesn’t reduce the virus titre”. Moreover, the “Virucidal activity (WNV infectivity)” value in [25] is given as “failed to affect the WNV infectivity”; in data set [25] (listed as 3-tigloyl-melianol) it was “doesn’t affect the WNV infectivity”.

In the case of `CC1(C)O[C@H]1[C@H]1C[C@@H]([C@@H]2CC[C@]3(C)C4=CC[C@H]5C(C)(C)C(=O)CC[C@]5(C)[C@H]4CC[C@@]23C)[C@H](O)O1` [Compound 5, melianone], the CC50 in [1] is 51 µM; in data set [2], over 100 µM; in data set [5] it was 16 µM; in [9] it was 50 µM. Moreover, the MIC in data set [19] was over 136 µM. Further, the “Cell viability, addition during the infection” value in data set [12] was “increases the cell viability”. Moreover, in data set [12], the “Cell viability, pretreatment” value is reported as “does not increase the cells viability”. In addition, the “Cell viability, addition at 1, 2, 4 or 8 hours post-infection” value in [12] is on record as “not more able to protect BHK-21 cells; also recorded: not more able to significantly increase the cell viability”. Besides, the “Cytotoxicity towards A549” value in [3] is listed as “exhibit cytotoxicity”. For the same molecule, the concentration for a half-maximal effect (EC50) in data set [4] (read-out: EC50 HIV-1IIIB) is over 100 µM; in data set [13] (read-out: EC50 WNV) it was 11 µM; in data set [14] (read-out: EC50 WNV 2hrs p.i.), over 50 µM; in data set [14] (read-out: EC50 WNV d. i.), 6.1 µM; in data set [15] (read-out: EC50 DENV-2), 12 µM; in data set [21], 3 to 11 µM. In addition, the EC50 in data set [7] is over 16 µM; in [8] (read-out: EC50 YFV), 3 µM; in [10] (read-out: EC50 Reo-1), over 50 µM; in data set [11] (read-out: EC50 HSV-1), 20 µM. Besides, the “Reduction of WNV titre (yield reduction)” value is recorded as “a reduction of virus titre was observed” in data set [22] and “Reduction of WNV titre” in data set [22] (listed as melianone). The “Cytopathic effects on BHK-21 monolayers” value in data set [9] is reported as “did not show significant cytopathic effects”. In addition, the “WNV adsorption (virus titre)” value in data set [24] is listed as “doesn’t reduce the virus titre”. Besides, the “Virucidal activity (WNV infectivity)” value in data set [25] is on record as “failed to affect the WNV infectivity”; in data set [25] (listed as melianone) it was “doesn’t affect the WNV infectivity”.

On to `O=C1Nc2ccc(Cl)cc2[C@@](C#CC2CC2)(C(F)(F)F)O1` [Efavirenz, reference compound], for which the EC50 in data set [4] (setting [31]) was found to be 0.002 µM. Further, the CC50 in data set [20] was 40 µM.

The molecule `NNC(=O)c1ccncc1` [Isoniazid, reference compound] yielded an MIC in [19] (setting [30]) of 0.45 µM (≈ 0.0617 µg/mL).
